These results are taken from patent US20100010058A1, “Azoline Compounds for Combating Arthropod Pests” (BASF SE, priority 2006, published 2010).

What all share (format): in vivo
Test [1] deals with Vetch Aphid (Megoura viciae). Briefly: Activity against Vetch Aphid (Megoura viciae), bean leaf disk microtiterplate test. To be noted: foliar, 144 h, bean leaf disks sprayed, adult aphids, 6 days, compared to 0% mortality of untreated controls. The procedure: 2.1 Activity against Vetch Aphid (Megoura viciae)
The active compounds were formulated in DMSO/water (1:3). Bean leaf disks were placed into microtiterplates filled with 0.8% agar-agar and 2.5 ppm OPUS™. The leaf disks were sprayed with 2.5 μl of the test solution and 5 to 8 adult aphids were placed into the microtiterplates which were then closed and kept at 22-24° C. and 35-45% under fluorescent light for 6 days. Mortality was assessed on the basis of vital, reproduced aphids. Tests were replicated 2 times.

Test [2] has as its system Cotton Aphid (Aphis gossypii). The experiment in a line: Activity against Cotton Aphid (Aphis gossypii), cotton cotyledon dip test. The settings on record: 120 h, cotton cotyledons dipped, mortality counts after 5 days. The source says:
2.2 Activity against Cotton Aphid (Aphis gossypii)
The active compounds were formulated in acetone/water (1:1) and 100 ppm Kinetic™ surfactant. Cotton plants at the cotyledon stage (one plant per pot) were infested by placing a heavily infested leaf from the main colony on top of each cotyledon. The aphids were allowed to transfer to the host plant overnight, and the leaf used to transfer the aphids was removed. The cotyledons were dipped in the test solution and allowed to dry. After 5 days, mortality counts were made.

For test [3], the system named is Green Peach Aphid (Myzus persicae). Briefly: Activity against Green Peach Aphid (Myzus persicae), pepper plant leaf dip test. To be noted: foliar, 120 h, pepper plant leaves dipped, after 5 days, in comparison with untreated controls. The procedure:
2.3. Activity against Green Peach Aphid (Myzus persicae)
Pepper plants in the 2nd leaf-pair stage (variety ‘California Wonder’) are infested with approximately 40 laboratory-reared aphids by placing infested leaf sections on top of the test plants. The leaf sections are removed after 24 hours. The leaves of the intact plants are dipped into gradient solutions of the test compound. Aphid mortality on the treated plants, relative to mortality on check plants, is determined after 5 days.

Test [4] deals with Brown Planthopper (nilaparvata lugens). The experiment in a line: Activity against Brown Planthopper (nilaparvata lugens), sprayed rice plants. To be noted: assessed 24, 48 and 72 hours after treatment, in comparison with untreated controls. The procedure:
2.4 Activity against Brown Planthopper (nilaparvata lugens)
The active compounds were formulated as a 20:80 acetone:water solution. Surfactant (Alkamuls EL 620) was added at the rate of 0.1% (vol/vol).
Potted rice plants of 3-4 weeks of age are sprayed with 10 ml of the test solution using air driven hand atomizer (Devillbis atomizer) at 1.7 bar. The treated plants are allowed to dry for about 1 hour and covered with Mylar cages. The plants are inoculated with 10 adults of the specie (5 male and 5 females) and kept at 25-27° C. and 50-60% humidity for 3 days. Mortality is assed after 24, 48 and 72 hours after treatment. Dead insects are usually found in the water surface. Each treatment is replicated once.

In general, mortality refers to the share of the test organisms that died. A lower mortality goes with more survivors.

`Cc1cccc(CN(NC2=NCCS2)c2cccc(Cl)c2Cl)c1` [Example 7, N-(2,3-Dichloro-phenyl)-N′-(4,5-dihydro-thiazol-2-yl)-N-(3-methyl-benzyl)-hydrazine] registered a mortality at 2500 ppm in test [1] above 75%. In addition, the figures for the mortality at 300 ppm in test [2], in test [3] and in test [4] were above 50%, above 50% and at least 50%, respectively.

`CC(C)=CCN(NC1=NCCS1)c1cccc(C)c1C` [Example 30, N′-(4,5-Dihydro-thiazol-2-yl)-N-(2,3-dimethyl-phenyl)-N-(3-methyl-but-2-enyl)-hydrazine]: the mortality at 2500 ppm in test [1] was above 75%.
